Measurements published in paper PMC6171417, “Carbonic anhydrase inhibition with a series of novel benzenesulfonamide-triazole conjugates” (Journal of Enzyme Inhibition and Medicinal Chemistry, 2018).

Legend:
Assay in all cases: cells
Parameters in all cases: species or system NCI human tumour cell line panel; NCI one-dose anti-proliferative screen, human tumour cell line panel, growth inhibition percent (GI%)
MCF7 = conditions: Homo sapiens, MCF7; growth inhibition (GI%), single dose
Procedure: (§1) Ten of the newly synthesised 1,2,3-triazolo benzenesulfonamide derivatives were selected by NCI (Bethesda, MD) for evaluating their anti-proliferative activity. The selected compounds were subjected to a primary in vitro one-dose ([…]) anti-proliferative assay against 57 human tumour cell lines following the previously reported method[30] and their obtained growth inhibition percent (GI%) are presented in Table 2. A subset of ten triazolo-benzenesulfonamides (3, 5, 6, 7, 9, 11, 16–18, and 20) were selected and subjected to an in vitro anti-proliferative screening against a panel of 57 cancer cell lines at NCI at an initial high dose ([…]). The human cell lines used were derived from nine cancer types: leukaemia, lung, colon, CNS, melanoma, ovarian, renal, prostate and breast cancers.

NCI-H322M = conditions: Homo sapiens, NCI-H322M; growth inhibition (GI%), single dose
Procedure: as §1

HT29 = conditions: Homo sapiens, HT-29; growth inhibition (GI%), single dose
Procedure: as §1

A498 = conditions: Homo sapiens, A498; growth inhibition (GI%), single dose
Procedure: as §1

RPMI-8226 = conditions: Homo sapiens, RPMI-8226; growth inhibition (GI%), single dose
Procedure: as §1

CCRF-CEM = conditions: Homo sapiens, CCRF-CEM; growth inhibition (GI%), single dose
Procedure: as §1

HL-60(TB) = conditions: Homo sapiens, HL-60; growth inhibition (GI%), single dose
Procedure: as §1

PC-3 = conditions: Homo sapiens, PC-3; growth inhibition (GI%), single dose
Procedure: as §1

NCI-H522 = conditions: Homo sapiens, NCI-H522; growth inhibition (GI%), single dose
Procedure: as §1

SK-OV-3 = conditions: Homo sapiens, SK-OV-3; growth inhibition (GI%), single dose
Procedure: as §1

NCI-H226 = conditions: Homo sapiens, NCI-H226; growth inhibition (GI%), single dose
Procedure: as §1

HOP-62 = conditions: Homo sapiens, HOP-62; growth inhibition (GI%), single dose
Procedure: as §1

HS 578T = conditions: Homo sapiens, Hs-578T; growth inhibition (GI%), single dose
Procedure: as §1

HCT-116 = conditions: Homo sapiens, HCT-116; growth inhibition (GI%), single dose
Procedure: as §1

EKVX = conditions: Homo sapiens, EKVX; growth inhibition (GI%), single dose
Procedure: as §1

OVCAR-8 = conditions: Homo sapiens, OVCAR-8; growth inhibition (GI%), single dose
Procedure: as §1

UACC-62 = conditions: Homo sapiens, UACC-62; growth inhibition (GI%), single dose
Procedure: as §1

T-47D = conditions: Homo sapiens, T47D; growth inhibition (GI%), single dose
Procedure: as §1

MOLT-4 = conditions: Homo sapiens, MOLT-4; growth inhibition (GI%), single dose
Procedure: as §1

A549/ATCC = conditions: Homo sapiens, A549; growth inhibition (GI%), single dose
Procedure: as §1

CN(C)c1ccc(-c2nc3c(nnn3-c3ccc(S(N)(=O)=O)cc3)c(N)c2C#N)cc1 [compound 17, 4-(7-amino-6-cyano-5-(4-(dimethylamino)phenyl)-3H-[1,2,3]triazolo[4,5-b]pyridin-3-yl)benzenesulfonamide] gave an inhibition at 10 µM (MCF7) of 7.3%, an inhibition at 10 µM (NCI-H322M) of 3.9% and an inhibition at 10 µM (HT29) of 3.3%. For the same compound, the inhibition at 10 µM (A498) was 1.8%, the inhibition at 10 µM (RPMI-8226) was 12.5% and the inhibition at 10 µM (CCRF-CEM) was 11.4%. For the same compound, the inhibition at 10 µM (HL-60(TB)) was 12.5%, the inhibition at 10 µM (PC-3) was 13.8% and the inhibition at 10 µM (NCI-H522) was 14.8%. It also gave an inhibition at 10 µM (SK-OV-3) of 12.3%, an inhibition at 10 µM (NCI-H226) of 16.9% and an inhibition at 10 µM (HOP-62) of 21.7%. It also gave an inhibition at 10 µM (HS 578T) of 2.9%, an inhibition at 10 µM (HCT-116) of 3.6% and an inhibition at 10 µM (EKVX) of 17.2%. The inhibition at 10 µM (OVCAR-8) was 11.4%, the inhibition at 10 µM (UACC-62) was 11.6% and the inhibition at 10 µM (T-47D) was 5.2%. The inhibition at 10 µM (MOLT-4) was 2.3% and the inhibition at 10 µM (A549/ATCC) was 16.3%.
